Laboratory results taken from patent publication US20120100184A1, “SYNTHESIS OF 1-AMINO-1,3,3,5,5,-CYCLOHEXANE MESYLATE” (MERZ PHARMA GmbH & CO.KGaA, priority 2009, published 2012).

Tests used:
[1] = Particle size distribution of neramexane mesylate crystals by laser diffraction; assay type: physicochemical; conditions: for d(10) / d(50) / d(90): Example 17, re-crystallized from anisole; for PSD d(10) / PSD d(50) / PSD d(90): re-crystallization step (iii) and seeding step (iv)
Procedure: The particle size is determined according to the known methods employing laser diffraction as already mentioned above, and determining the distribution modal sizes.
Particle size distribution ranges as determined by laser diffraction with mesylates obtained in anisole, cumene, methyl ethyl ketone, methyl isobutyl ketone and n-butyl acetate by performing at least re-crystallization step (iii) and seeding step (iv) are disclosed in the following table:
The crystals obtained in the process of Example 1 are analysed regarding the crystal size and size distribution. A commercial Malvern Mastersizer 2000 is employed. The samples are dispersed in rapeseed oil.

[2] = Amount of solvent necessary to dissolve 1 g neramexane mesylate (re-crystallization step (iii)); assay type: physicochemical
Procedure: 20 ml cumene are necessary to dissolve 1 g neramexane mesylate at 104° C. The mixture is cooled down to ambient temperature. The re-crystallized product is isolated via centrifugation. The obtained crystals are columnar.
22 ml methyl ethyl ketone are necessary to dissolve 1 g neramexane mesylate at 80° C. The mixture is cooled down to ambient temperature. The re-crystallized product is isolated via centrifugation. The obtained crystals have the form of plates in admixture with columnar crystals.
20 ml methyl isobutyl ketone are necessary to dissolve 1 g neramexane mesylate at 100° C. The mixture is cooled down to ambient temperature. The re-crystallized product is isolated via centrifugation. The obtained crystals are columnar.
23 ml n-butyl acetate are necessary to dissolve 1 g neramexane mesylate at 100° C. The mixture is cooled down to ambient temperature. The re-crystallized product is isolated via centrifugation. The obtained crystals are columnar.
10 ml anisole are necessary to dissolve 1 g neramexane mesylate at 87° C. The mixture is cooled down to ambient temperature. The re-crystallized product is isolated via centrifugation. The obtained crystals are columnar.
20 ml tetrahydrofurane are necessary to dissolve 1 g neramexane mesylate at 60° C. The mixture is cooled down to 57° C., where 5% by weight neramexane mesylate is added. Subsequently, the mixture is cooled down to ambient temperature. The re-crystallized product is isolated via centrifugation in a yield of 89%. The obtained crystals have the form of plates.
20 ml toluene are necessary to dissolve 1 g neramexane mesylate at 80° C. The mixture is cooled down to ambient temperature. The re-crystallized product is isolated via centrifugation.
100 ml of the mixture of acetone and water are necessary to dissolve 1 g neramexane mesylate at 40° C. The mixture is cooled down to ambient temperature. The re-crystallized product is isolated via centrifugation in a yield of 66%.
55 ml of dichloromethane are necessary to dissolve 1 g neramexane mesylate at 40° C. The mixture is cooled down to ambient temperature. The re-crystallized product is isolated via centrifugation in a yield of 87%.

[3] = mesylate of the prior art (Schweizer, Dissertation, page 200); cited from earlier work
[4] = Example 3, anisole, 5% by weight seeds added
[5] = crystals of Example 1 (anisole, no seeds), Malvern Mastersizer 2000, dispersed in rapeseed oil
[6] = obtained in methyl ethyl ketone
[7] = obtained in methyl isobutyl ketone

Particle size Distribution d(10) [1, 4]: 15 μm
Particle size Distribution d(50) [1, 4]: 74 μm
Particle size Distribution d(90) [1, 4]: 184 μm
amount of particulate matter (particles having a diameter of 10 μm and less) ([1]; Example 17, anisole, 1%, 2.5%, 5% and 7.5% seeds, respectively): below 5 % by weight
d(10) ([1]; 1% seeds): 69 μm
d(50) ([1]; 1% seeds): 181 μm
d(90) ([1]; 1% seeds): 377 μm
d(10) ([1]; 2.5% seeds): 36 μm
d(50) ([1]; 2.5% seeds): 119 μm
d(90) ([1]; 2.5% seeds): 330 μm
d(10) ([1]; 5% seeds): 24 μm
d(50) ([1]; 5% seeds): 86 μm
d(90) ([1]; 5% seeds): 215 μm
d(10) ([1]; 7.5% seeds): 21 μm
d(50) ([1]; 7.5% seeds): 76 μm
d(90) ([1]; 7.5% seeds): 243 μm
total amount of particles having a particle size of 10 μm and less ([1]; crystals of Example 1 (anisole, no seeds)): less than 1 % by weight
Particle size Distribution d(10) [1, 5]: 52.3 μm
Particle size Distribution d(50) [1, 5]: 129.4 μm
Particle size Distribution d(90) [1, 5]: 264.5 μm
PSD d(10) ([1]; obtained in anisole): 15 μm
PSD d(50) ([1]; obtained in anisole): 74 μm
PSD d(90) ([1]; obtained in anisole): 184 μm
PSD d(10) ([1]; obtained in cumene): 12 μm
PSD d(50) ([1]; obtained in cumene): 62 μm
PSD d(90) ([1]; obtained in cumene): 152 μm
PSD d(10) [1, 6]: 5 μm
PSD d(50) [1, 6]: 79 μm
PSD d(90) [1, 6]: 210 μm
PSD d(10) [1, 7]: 11 μm
PSD d(50) [1, 7]: 57 μm
PSD d(90) [1, 7]: 137 μm
PSD d(10) ([1]; obtained in n-butyl acetate): 12 μm
PSD d(50) ([1]; obtained in n-butyl acetate): 58 μm
PSD d(90) ([1]; obtained in n-butyl acetate): 136 μm
solvent necessary to dissolve 1 g neramexane mesylate ([2]; anisole, 87° C.): 10 mL
solvent necessary to dissolve 1 g neramexane mesylate ([2]; cumene, 104° C.): 20 mL
solvent necessary to dissolve 1 g neramexane mesylate ([2]; dichloromethane, 40° C. (comparison)): 55 mL
solvent necessary to dissolve 1 g neramexane mesylate ([2]; methyl ethyl ketone, 80° C.): 22 mL
solvent necessary to dissolve 1 g neramexane mesylate ([2]; methyl isobutyl ketone, 100° C.): 20 mL
solvent necessary to dissolve 1 g neramexane mesylate ([2]; mixture of acetone/water 99/1 (volume/volume), 40° C. (comparison)): 100 mL
solvent necessary to dissolve 1 g neramexane mesylate ([2]; n-butyl acetate, 100° C.): 23 mL
solvent necessary to dissolve 1 g neramexane mesylate ([2]; tetrahydrofurane, 60° C.): 20 mL
solvent necessary to dissolve 1 g neramexane mesylate ([2]; toluene, 80° C. (comparison)): 20 mL
SMILES: CC1(C)CC(C)(C)CC(C)(N)C1.CS(=O)(=O)O [neramexane mesylate, 1-amino-1,3,3,5,5-pentamethylcyclohexane mesylate]
particle population having a diameter of less than 10 μm [3]: approximately 20 % by weight
